US20110098288A1, “SULFONAMIDES AS ZAP-70 INHIBITORS” (priority 2008, published 2011)
Where a name gives a salt, the structure may show the parent alone. Blank lines part the entries; values can stand above or below the molecule they belong to.

Tests used:
Jurkat cells = test: Calcium release assay (Fluo-4 flow cytometry after anti-CD3 stimulation); format: cell-based; details: Homo sapiens, Jurkat cell line J77, anti-CD3 activation, read-out: IC50 (Calcium ion release in cells)
Protocol: Compounds of the present invention were tested in a Calcium release assay as described below.
The development of fluorescent probes makes it possible to measure the concentration of intracellular free Calcium ions in single living cells. Cells are first loaded with a cell-permeable Ca^2+-sensitive dye, then the test compound is added. Finally, cells are activated through the T cell receptor with an anti-CD3 antibody shortly before data acquisition on the flow cytometer. The release of Ca^2+ is measured as a function of time after cell stimulation. This protocol describes the flow cytometry method using the Fluo-3 and Fluo-4 dyes (Minta et al., 1989, J. Biol. Chem. 264(14):8171-8178) to measure the intracellular Ca^2+ concentration in Jurkat cells (see also June et al., 1997, Measurement of intracellular calcium ions by flow cytometry. In: Current Protocols in Cytometry (1997) Unit 9.8.1-9.8.19, John Wiley & Sons, Inc.).
In general, cells should be handled in the shortest time possible to assure their stability. Therefore the preparation of all materials in advance is highly recommended as well as using any incubation or centrifugation time to prepare the next steps (e.g. preparing compound dilution or starting the flow cytometer).
1) Prepare a work plan indicating the number of samples to be analyzed including controls. 2) Cell harvest: Centrifuge 50 to 100 ml of a Jurkat cell culture for 5 minutes at 1100 rpm. Discard the supernatant, pool the resuspended cell pellets in a single 50 ml Falcon tube, and fill up to 50 ml with PBS—CaCl2 (without FCS). Centrifuge again sample again. 3) Resuspend cell pellet with PBS—CaCl2 (without FCS) to achieve a concentration not lower than 10×10^6 cells/ml. Prepare an adequate dilution to evaluate the cell concentration and count the cells. 4) Separate the volume of cells needed to be loaded (for example […] for 20 samples) in a 50 ml Falcon tube. Fill up with PBS—CaCl2 to 900 μl for 107 cells. 5) Prepare in the dark a 1:1 mix of FLUO-4 (1 mM)+Pluronic F-127 (20%). 5 μl of Fluo-4 are needed per 107 cells. 6) Prepare a 1/10 dilution of this mix with PBS—CaCl2 (in the dark; for example 5 μl Fluo-4+5 μl F-127 completed to 100 μl). 7) Add the dye solution to the cells. […] 8) Incubate the sample for 30 minutes in a cell incubator (37° C., 5% CO2). Mix from time to time. 9) During this time prepare the adequate test compound dilution in PBS—CaCl2 (with 10% FCS). The solution should be 10 times more concentrated than the desired final concentration. Vortex each dilution. Prepare also the antibody dilutions: anti-CD3 (1/200) and GAM (1/25). 10) Label FACS tubes and distribute in the corresponding tube 30 μl of the compound dilution or only buffer for the control tubes. 11) After 30 minutes of incubation wash the cells twice in PBS—CaCl2 (with 10% FCS). During the washing steps make sure that the flow cytometer is already “ON” in order to warm the laser. 12) Resuspend the cell pellet in PBS—CaCl2 (with 10% FCS) at a concentration of 1.5×10^6 cells/ml. 13) Distribute 300 μl of cell suspension into the FACS tubes and mix gently. The compound incubation is starting. Keep samples at room temperature in the dark. 14) Open the settings of the cytometer. It is advised to have a template ready which is used for all measurements. Settings of the machine should also be the same from one experiment to the other which permits to evaluate the reproducibility of the cell preparation. 15) In Setup modus control your cell preparation on the cytometer. Cells should fit in the pre-defined gates. 16) During the compound incubation time, check also that cells are responding to the anti-CD3 activation as expected. Set a timer at 8 sec. Add 6 μl of anti-CD3 dilution (0.2 μg/ml final) and mix gently. Add 1 μl of GAM dilution (0.75 μg/ml final) and mix gently. Incubate the samples in water bath at 37° C. while starting timer. After 8 seconds of incubation, acquire data at medium speed for 200 seconds. […]

ZAP-70 = target: T1, ZAP-70 (Homo sapiens, UniProt P43403); test: ZAP-70 kinobeads assay; format: binding; details: competition with immobilized aminopyrido-pyrimidine ligand 24 in cell lysate; ZAP-70 detected by dot blot
T1 construct: endogenous in cells; host or cells: cell lysate
T1 sequence (P43403 1-619): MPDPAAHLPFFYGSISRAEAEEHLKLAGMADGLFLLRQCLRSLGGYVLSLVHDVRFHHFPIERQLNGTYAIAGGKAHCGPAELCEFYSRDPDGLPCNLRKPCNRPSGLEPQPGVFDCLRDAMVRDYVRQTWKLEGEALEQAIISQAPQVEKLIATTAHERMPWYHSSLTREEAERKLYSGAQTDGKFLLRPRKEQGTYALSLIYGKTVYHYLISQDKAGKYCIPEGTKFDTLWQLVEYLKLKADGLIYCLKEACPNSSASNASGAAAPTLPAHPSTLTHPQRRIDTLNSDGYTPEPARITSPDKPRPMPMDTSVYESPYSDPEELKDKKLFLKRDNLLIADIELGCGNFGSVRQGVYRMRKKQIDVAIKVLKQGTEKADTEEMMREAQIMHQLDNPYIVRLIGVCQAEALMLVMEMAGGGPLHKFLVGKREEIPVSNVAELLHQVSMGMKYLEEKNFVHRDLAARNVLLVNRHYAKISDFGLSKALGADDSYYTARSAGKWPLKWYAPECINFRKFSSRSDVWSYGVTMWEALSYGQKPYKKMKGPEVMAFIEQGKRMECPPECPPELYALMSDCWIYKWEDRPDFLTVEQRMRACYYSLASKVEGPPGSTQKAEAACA
How it was run: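 Competition binding format: compounds compete with a bead-immobilized aminopyrido-pyrimidine ligand for ZAP-70 in cell lysate. After bead separation and elution, bound ZAP-70 measured by antibody dot blot with infrared read-out.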

IC50 (Jurkat cells): 100 to 1000 nM | IC50 (ZAP-70): < 100 nM
Structure (SMILES): COc1ccc(Nc2ncc(Cl)c(Nc3ccccc3NS(C)(=O)=O)n2)cc1OCCN1CCCCC1 [Example 125, N-(2-(5-chloro-2-(4-methoxy-3-(2-(piperidin-1-yl)ethoxy)phenylamino)pyrimidin-4-ylamino)phenyl)methanesulfonamide]

IC50 (Jurkat cells): 100 to 1000 nM | IC50 (ZAP-70): 100 to 1000 nM
Structure (SMILES): CS(=O)(=O)Nc1ccccc1Nc1nc(Nc2ccc(OCCCN3CCCC3)cc2)ncc1F [Example 92]

IC50 (Jurkat cells): 100 to 1000 nM | IC50 (ZAP-70): < 100 nM
Structure (SMILES): CCc1cccc(Nc2nc(Nc3cc(OC)c(OC)c(OC)c3)ncc2F)c1NS(C)(=O)=O [Example 169, N-(2-ethyl-6-(5-fluoro-2-(3,4,5-trimethoxyphenylamino)pyrimidin-4-ylamino)phenyl)methanesulfonamide]

IC50 (Jurkat cells): < 100 nM | IC50 (ZAP-70): 100 to 1000 nM
Structure (SMILES): CCN(CC)C(=O)COc1cccc(Nc2ncc(Cl)c(Nc3ccccc3NS(C)(=O)=O)n2)c1 [Example 150, 2-(3-(5-chloro-4-(2-(methylsulfonamido)phenylamino)pyrimidin-2-ylamino)phenoxy)-N,N-diethylacetamide]

IC50 (Jurkat cells): 100 to 1000 nM
Structure (SMILES): COc1cc(Nc2ncc(F)c(Nc3cccc(NS(=O)(=O)c4cccnc4)c3)n2)cc(OC)c1OC [Example 58, N-(3-(5-fluoro-2-(3,4,5-trimethoxyphenylamino)pyrimidin-4-ylamino)phenyl)pyridine-3-sulfonamide]

IC50 (Jurkat cells): 100 to 1000 nM | IC50 (ZAP-70): 100 to 1000 nM
Structure (SMILES): CS(=O)(=O)Nc1ccccc1Nc1nc(Nc2cccc(OCCN3CCOCC3)c2)ncc1F [Example 77, N-(2-(5-fluoro-2-(3-(2-morpholinoethoxy)phenylamino)pyrimidin-4-ylamino)phenyl)methanesulfonamide]

IC50 (Jurkat cells): < 100 nM | IC50 (ZAP-70): < 100 nM
Structure (SMILES): COc1ccc(Nc2nc(Nc3cc(OC)c(OC)c(OC)c3)ncc2Cl)c(NS(C)(=O)=O)c1 [Example 152, N-(2-(5-chloro-2-(3,4,5-trimethoxyphenylamino)pyrimidin-4-ylamino)-5-methoxyphenyl)methanesulfonamide]

IC50 (Jurkat cells): 100 to 1000 nM | IC50 (ZAP-70): 1000 to 10000 nM
Structure (SMILES): CS(=O)(=O)Nc1ccccc1Nc1nc(Nc2ccc(F)cc2)ncc1F [Example 2, N-(2-(5-fluoro-2-(4-fluorophenylamino)pyrimidin-4-ylamino)phenyl)methanesulfonamide]

IC50 (Jurkat cells): 100 to 1000 nM | IC50 (ZAP-70): < 100 nM
Structure (SMILES): CS(=O)(=O)Nc1ccccc1Nc1nc(Nc2cccc(OCCCN3CCCCC3)c2)ncc1Cl [Example 134]

IC50 (Jurkat cells): < 100 nM | IC50 (ZAP-70): < 100 nM
Structure (SMILES): COc1ccc(Nc2nc(Nc3cc(OC)c(OC)c(OC)c3)ncc2F)c(NS(C)(=O)=O)c1 [Example 173, N-(2-(5-fluoro-2-(3,4,5-trimethoxyphenylamino)pyrimidin-4-ylamino)-5-methoxyphenyl)methanesulfonamide]

IC50 (Jurkat cells): 100 to 1000 nM
Structure (SMILES): COc1cc(Nc2ncc(F)c(Nc3ccc(NS(=O)(=O)c4ccccc4)cc3)n2)cc(OC)c1OC [Example 44, N-(4-(5-fluoro-2-(3,4,5-trimethoxyphenylamino)pyrimidin-4-ylamino)phenyl)benzenesulfonamide]

Further lines, the molecule ahead of its results:

Structure (SMILES): CN1CCCC(COc2cccc(Nc3ncc(F)c(Nc4ccccc4NS(C)(=O)=O)n3)c2)C1 (stereo not shown) [Example 98, N-(2-(5-fluoro-2-(3-((1-methylpiperidin-3-yl)methoxy)phenylamino)pyrimidin-4-ylamino)phenyl)methanesulfonamide]
IC50 (Jurkat cells): 100 to 1000 nM | IC50 (ZAP-70): < 100 nM

Structure (SMILES): COc1cc(Nc2ncc(F)c(Nc3ccc(C)cc3NS(C)(=O)=O)n2)cc(OC)c1OC [Example 170, N-(2-(5-Fluoro-2-(3,4,5-trimethoxyphenylamino)pyrimidin-4-ylamino)-5-methylphenyl)methanesulfonamide]
IC50 (Jurkat cells): 100 to 1000 nM | IC50 (ZAP-70): 100 to 1000 nM

Structure (SMILES): COc1cc(Nc2ncc(F)c(Nc3ccccc3NS(C)(=O)=O)n2)cc(OCCN2CCCC2)c1 [Example 94, N-(2-(5-fluoro-2-(3-methoxy-5-(2-(pyrrolidin-1-yl)ethoxy)phenylamino)pyrimidin-4-ylamino)phenyl)methanesulfonamide formate salt]
IC50 (Jurkat cells): 100 to 1000 nM | IC50 (ZAP-70): 100 to 1000 nM

Structure (SMILES): COc1cc(Nc2ncc(Br)c(Nc3ccccc3NS(C)(=O)=O)n2)ccc1C [Example 104, N-(2-(5-bromo-2-(3-methoxy-4-methylphenylamino)pyrimidin-4-ylamino)phenyl)methanesulfonamide]
IC50 (Jurkat cells): 100 to 1000 nM | IC50 (ZAP-70): 100 to 1000 nM

Structure (SMILES): CS(=O)(=O)Nc1ccccc1Nc1nc(Nc2ccc(N3CCCCC3)cc2)ncc1Br [Example 215, N-(2-(5-bromo-2-(4-(piperidin-1-yl)phenylamino)pyrimidin-4-ylamino)phenyl)methanesulfonamide]
IC50 (Jurkat cells): 100 to 1000 nM | IC50 (ZAP-70): 100 to 1000 nM

Structure (SMILES): COc1cc(Nc2ncc(Cl)c(Nc3ccccc3NS(C)(=O)=O)n2)cc(OC)c1OC [Example 138, N-(2-(5-chloro-2-(3,4,5-trimethoxyphenylamino)pyrimidin-4-ylamino)phenyl)methanesulfonamide hydrochloride]
IC50 (Jurkat cells): < 100 nM | IC50 (ZAP-70): < 100 nM

Structure (SMILES): CN1CCN(C)C(COc2cccc(Nc3ncc(Cl)c(Nc4ccccc4NS(C)(=O)=O)n3)c2)C1 (stereo not shown) [Example 147, N-(2-(5-chloro-2-(3-((1,4-dimethylpiperazin-2-yl)methoxy)phenylamino)pyrimidin-4-ylamino)phenyl)methanesulfonamide]
IC50 (Jurkat cells): < 100 nM | IC50 (ZAP-70): < 100 nM

Structure (SMILES): CN1CCCC(COc2cccc(Nc3ncc(Cl)c(Nc4ccccc4NS(C)(=O)=O)n3)c2)C1 (stereo not shown) [Example 146, N-(2-(5-chloro-2-(3-((1-methylpiperidin-3-yl)methoxy)phenylamino)pyrimidin-4-ylamino)phenyl)methanesulfonamide]
IC50 (Jurkat cells): < 100 nM | IC50 (ZAP-70): < 100 nM

Structure (SMILES): CS(=O)(=O)Nc1ccccc1Nc1nc(Nc2cccc(-n3cncn3)c2)ncc1F [Example 21, N-(2-(2-(3-(1H-1,2,4-triazol-1-yl)phenylamino)-5-fluoropyrimidin-4-ylamino)phenyl)methanesulfonamide]
IC50 (Jurkat cells): 100 to 1000 nM | IC50 (ZAP-70): 1000 to 10000 nM

Structure (SMILES): COc1cc(Nc2ncc(Cl)c(Nc3ccccc3NS(C)(=O)=O)n2)ccc1OCCN1CCCCC1 [Example 142, N-(2-(5-chloro-2-(3-methoxy-4-(2-(piperidin-1-yl)ethoxy)phenylamino)pyrimidin-4-ylamino)phenyl)methanesulfonamide hydrochloride]
IC50 (Jurkat cells): 100 to 1000 nM | IC50 (ZAP-70): < 100 nM
